Test results published in ChEMBL document CHEMBL2176989, “Design, synthesis, and pharmacological evaluation of piperidin-4-yl amino aryl sulfonamides: novel, potent, selective, orally active, and brain penetrant 5-HT₆ receptor antagonists” (J Med Chem, 2012).
The source made the active and inactive calls. The calls are words filed in the database; no cut-off is given here.

Assays:
[1] = molecular target: 5-hydroxytryptamine receptor 6 (Homo sapiens) (UniProt P50406); experiment: Antagonist activity at human recombinant 5HT6 receptor expressed in CHO cells assessed as inhibition of 5HT-induced luciferase activity after 4 hrs by reporter gene assay relative to control; format: functional, cell-based
5-hydroxytryptamine receptor 6 (Homo sapiens), sequence (P50406 whole entry): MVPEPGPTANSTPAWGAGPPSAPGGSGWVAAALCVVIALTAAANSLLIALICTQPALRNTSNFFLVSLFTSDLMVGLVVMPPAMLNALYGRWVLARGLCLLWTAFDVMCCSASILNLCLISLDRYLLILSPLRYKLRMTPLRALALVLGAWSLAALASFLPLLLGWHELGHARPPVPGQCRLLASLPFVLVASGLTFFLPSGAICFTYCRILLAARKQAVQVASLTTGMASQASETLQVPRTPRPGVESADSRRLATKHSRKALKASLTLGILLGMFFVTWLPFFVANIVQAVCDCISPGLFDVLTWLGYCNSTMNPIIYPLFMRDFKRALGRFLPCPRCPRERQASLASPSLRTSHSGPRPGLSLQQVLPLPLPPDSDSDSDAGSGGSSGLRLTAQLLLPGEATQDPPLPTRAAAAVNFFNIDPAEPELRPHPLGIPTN

[2] = Half life in Wistar rat at 5 mg/kg, iv; format: ADME, organism-based; set-up: dose 5 mg/kg, route intravenous; details: in vivo
[3] = AUC (0 to 24 hrs) in Wistar rat at 5 mg/kg, iv; format: ADME, organism-based; set-up: time < 24 hr, dose 5 mg/kg, route intravenous; details: plasma
[4] = AUC (0 to 24 hrs) in beagle dog at 1 mg/kg, iv; format: ADME, organism-based, Canis lupus familiaris; set-up: time < 24 hr, dose 1 mg/kg, route intravenous; details: plasma
[5] = molecular target: T1, 5-hydroxytryptamine receptor 1A (Homo sapiens, UniProt P08908); experiment: Binding affinity to 5HT1A receptor
T1 sequence (P08908 whole entry): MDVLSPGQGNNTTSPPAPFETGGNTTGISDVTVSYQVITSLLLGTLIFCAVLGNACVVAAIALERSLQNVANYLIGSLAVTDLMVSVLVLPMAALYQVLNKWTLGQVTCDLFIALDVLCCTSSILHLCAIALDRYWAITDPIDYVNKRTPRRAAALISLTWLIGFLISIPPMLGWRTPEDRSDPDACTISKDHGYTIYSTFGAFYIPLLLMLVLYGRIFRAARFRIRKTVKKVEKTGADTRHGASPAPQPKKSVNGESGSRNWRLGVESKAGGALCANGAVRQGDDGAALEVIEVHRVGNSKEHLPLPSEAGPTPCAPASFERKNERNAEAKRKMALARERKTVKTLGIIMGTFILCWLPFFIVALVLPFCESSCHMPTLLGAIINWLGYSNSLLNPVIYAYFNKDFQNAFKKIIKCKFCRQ

[6] = Ratio of drug uptake in brain to plasma in Wistar rat at 10 mg/kg, po after 1 hr; format: ADME, organism-based; set-up: dose 10 mg/kg, route oral; details: read-out: BPR
[7] = Tmax in fasted Wistar rat at 5 mg/kg, po; format: ADME, organism-based; set-up: dose 5 mg/kg, route oral; details: in vivo
[8] = Apparent volume of distribution in beagle dog at 1 mg/kg, iv; format: ADME, organism-based, Canis lupus familiaris; set-up: dose 1 mg/kg, route intravenous; details: in vivo, read-out: Vz
[9] = Clearance in Wistar rat at 5 mg/kg, iv; format: ADME, organism-based; set-up: dose 5 mg/kg, route intravenous; details: in vivo
[10] = Cmax in fasted beagle dog at 3 mg/kg, po; format: ADME, organism-based, Canis lupus familiaris; set-up: dose 3 mg/kg, route oral; details: in vivo
[11] = Drug metabolism in Wistar rat liver microsomes at 2.5 uM at 30 mins by LC-MS/MS analysis; format: ADME, Microsome; details: read-out: Drug metabolism
[12] = tested on: Rattus norvegicus; experiment: Procognitive activity in Wistar rat assessed as reversal of time delay-induced memory deficit at 1 to 10 mg/kg, po by object recognition test; format: functional, organism-based
[13] = molecular target: T2, 5-hydroxytryptamine receptor 2C (Homo sapiens, UniProt P28335); experiment: Binding affinity to 5HT2C receptor
T2 sequence (P28335 whole entry): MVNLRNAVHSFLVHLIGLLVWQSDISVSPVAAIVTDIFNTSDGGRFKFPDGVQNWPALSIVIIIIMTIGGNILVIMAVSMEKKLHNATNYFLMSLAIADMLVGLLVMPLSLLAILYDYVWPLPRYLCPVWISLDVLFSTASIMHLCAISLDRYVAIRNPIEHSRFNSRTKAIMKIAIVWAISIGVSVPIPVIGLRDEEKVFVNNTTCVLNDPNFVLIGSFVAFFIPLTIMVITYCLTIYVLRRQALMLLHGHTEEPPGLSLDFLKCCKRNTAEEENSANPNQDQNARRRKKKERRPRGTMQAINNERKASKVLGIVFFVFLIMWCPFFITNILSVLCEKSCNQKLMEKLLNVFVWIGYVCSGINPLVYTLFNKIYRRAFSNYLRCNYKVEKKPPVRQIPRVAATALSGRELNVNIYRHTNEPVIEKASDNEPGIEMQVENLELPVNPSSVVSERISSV

[14] = tested on: Rattus norvegicus; experiment: Procognitive activity in Wistar rat assessed as reversal of time delay-induced memory deficit at 0.3 mg/kg, po by object recognition test; format: functional, organism-based; set-up: dose 0.3 mg/kg
[15] = Oral bioavailability in fasted beagle dog at 3 mg/kg; format: ADME, organism-based, Canis lupus familiaris; details: in vivo
[16] = molecular target: T3, 5-hydroxytryptamine receptor 3A (Homo sapiens, UniProt P46098); experiment: Binding affinity to 5HT3 receptor
T3 sequence (P46098 whole entry): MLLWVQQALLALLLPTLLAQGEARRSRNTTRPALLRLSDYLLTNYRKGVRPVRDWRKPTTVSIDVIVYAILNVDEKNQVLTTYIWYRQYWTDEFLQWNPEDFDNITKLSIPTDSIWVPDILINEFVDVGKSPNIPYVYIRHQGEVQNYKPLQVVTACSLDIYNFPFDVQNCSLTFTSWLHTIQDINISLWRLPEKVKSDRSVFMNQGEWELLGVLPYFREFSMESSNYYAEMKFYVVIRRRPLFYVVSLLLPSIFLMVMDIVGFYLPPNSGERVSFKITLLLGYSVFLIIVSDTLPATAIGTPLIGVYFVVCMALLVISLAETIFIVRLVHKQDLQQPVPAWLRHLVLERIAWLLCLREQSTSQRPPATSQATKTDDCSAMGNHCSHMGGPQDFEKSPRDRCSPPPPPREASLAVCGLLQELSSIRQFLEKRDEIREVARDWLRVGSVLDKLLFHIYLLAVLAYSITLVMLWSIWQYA

[17] = tested on: Rattus norvegicus; experiment: Procognitive activity in Wistar rat assessed as increase in acetylcholine level in medial prefrontal cortex at 10 mg/kg, sc administered as an acute dose measured up to 4 hrs by brain microdialysis method; format: functional, organism-based; set-up: dose 10 mg/kg
[18] = AUC (0 to 24 hrs) in fasted Wistar rat at 5 mg/kg, po; format: ADME, organism-based; set-up: time < 24 hr, dose 5 mg/kg, route oral; details: plasma
[19] = molecular target: D(2) dopamine receptor (Homo sapiens, UniProt P14416); experiment: Binding affinity to dopamine D2 receptor
D(2) dopamine receptor, sequence (P14416 whole entry): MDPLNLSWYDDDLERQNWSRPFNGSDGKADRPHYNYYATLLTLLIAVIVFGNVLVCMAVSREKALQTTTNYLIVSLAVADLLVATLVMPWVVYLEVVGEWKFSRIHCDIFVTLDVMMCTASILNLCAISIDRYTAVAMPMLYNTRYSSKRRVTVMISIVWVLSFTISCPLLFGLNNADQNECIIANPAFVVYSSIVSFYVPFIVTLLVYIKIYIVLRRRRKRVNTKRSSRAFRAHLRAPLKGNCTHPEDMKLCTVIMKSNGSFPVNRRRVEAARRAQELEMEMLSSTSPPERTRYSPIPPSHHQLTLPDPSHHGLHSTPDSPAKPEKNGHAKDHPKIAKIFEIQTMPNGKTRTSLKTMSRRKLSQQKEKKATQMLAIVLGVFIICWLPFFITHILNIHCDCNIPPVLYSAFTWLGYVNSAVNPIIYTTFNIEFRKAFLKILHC

[20] = Apparent volume of distribution in Wistar rat at 5 mg/kg, iv; format: ADME, organism-based; set-up: dose 5 mg/kg, route intravenous; details: in vivo, read-out: Vz
[21] = molecular target: Sodium-dependent serotonin transporter (Homo sapiens, UniProt P31645); experiment: Binding affinity to SERT
Sodium-dependent serotonin transporter, sequence (P31645 whole entry): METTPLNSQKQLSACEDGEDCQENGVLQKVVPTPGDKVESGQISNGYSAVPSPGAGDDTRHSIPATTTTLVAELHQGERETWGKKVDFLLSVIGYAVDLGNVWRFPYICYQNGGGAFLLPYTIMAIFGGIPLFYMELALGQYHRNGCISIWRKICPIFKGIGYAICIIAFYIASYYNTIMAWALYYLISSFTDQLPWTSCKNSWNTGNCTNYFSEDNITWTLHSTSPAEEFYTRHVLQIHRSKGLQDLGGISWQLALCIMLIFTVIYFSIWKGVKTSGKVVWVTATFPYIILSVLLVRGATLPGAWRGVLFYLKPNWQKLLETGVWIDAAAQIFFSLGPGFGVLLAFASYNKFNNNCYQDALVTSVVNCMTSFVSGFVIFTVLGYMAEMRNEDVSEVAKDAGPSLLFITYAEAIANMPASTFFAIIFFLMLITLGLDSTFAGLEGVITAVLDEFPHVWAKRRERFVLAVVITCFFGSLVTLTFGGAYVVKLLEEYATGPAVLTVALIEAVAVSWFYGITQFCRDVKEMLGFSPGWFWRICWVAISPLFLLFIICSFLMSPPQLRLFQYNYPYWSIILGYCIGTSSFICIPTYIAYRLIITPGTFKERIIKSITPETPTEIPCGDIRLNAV

[22] = molecular target: Cytochrome P450 3A4 (Homo sapiens, UniProt P08684); experiment: Inhibition of CYP3A4 in human liver microsomes using midazolam as substrate after 5 mins by LC-MS/MS analysis in presence of NADPH
Cytochrome P450 3A4, sequence (P08684 whole entry): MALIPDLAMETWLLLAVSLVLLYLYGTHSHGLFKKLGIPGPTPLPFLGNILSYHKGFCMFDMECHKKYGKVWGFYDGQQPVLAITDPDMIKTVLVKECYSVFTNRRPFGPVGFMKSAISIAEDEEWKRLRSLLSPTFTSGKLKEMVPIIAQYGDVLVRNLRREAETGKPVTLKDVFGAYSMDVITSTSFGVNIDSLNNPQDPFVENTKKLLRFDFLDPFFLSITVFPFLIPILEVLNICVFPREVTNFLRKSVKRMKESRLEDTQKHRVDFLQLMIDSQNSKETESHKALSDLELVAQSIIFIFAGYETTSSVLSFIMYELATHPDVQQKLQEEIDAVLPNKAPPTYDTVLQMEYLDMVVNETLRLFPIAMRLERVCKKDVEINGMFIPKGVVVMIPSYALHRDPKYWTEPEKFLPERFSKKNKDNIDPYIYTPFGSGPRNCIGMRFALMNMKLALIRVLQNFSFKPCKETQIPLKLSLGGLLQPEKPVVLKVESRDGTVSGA

[23] = Drug metabolism in human liver microsomes at 2.5 uM at 30 mins by LC-MS/MS analysis; format: ADME, Microsome; details: read-out: Drug metabolism
[24] = molecular target: 5-hydroxytryptamine receptor 7 (Homo sapiens, UniProt P34969); experiment: Binding affinity to 5HT7 receptor
5-hydroxytryptamine receptor 7, sequence (P34969 whole entry): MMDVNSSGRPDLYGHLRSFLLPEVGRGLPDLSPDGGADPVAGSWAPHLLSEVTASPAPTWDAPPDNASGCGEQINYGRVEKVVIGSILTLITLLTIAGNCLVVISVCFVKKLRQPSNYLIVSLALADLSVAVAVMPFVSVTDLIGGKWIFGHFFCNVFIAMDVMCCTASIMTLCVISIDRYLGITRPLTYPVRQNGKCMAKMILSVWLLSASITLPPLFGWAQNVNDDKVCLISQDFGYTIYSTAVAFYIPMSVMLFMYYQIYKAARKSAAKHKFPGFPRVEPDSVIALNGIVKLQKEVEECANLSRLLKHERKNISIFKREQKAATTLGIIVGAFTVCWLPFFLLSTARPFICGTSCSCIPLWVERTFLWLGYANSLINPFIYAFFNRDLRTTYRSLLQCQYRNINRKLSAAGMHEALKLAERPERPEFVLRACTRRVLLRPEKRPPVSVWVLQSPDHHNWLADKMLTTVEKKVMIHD

[25] = molecular target: 5-hydroxytryptamine receptor 2A (Homo sapiens, UniProt P28223); experiment: Binding affinity to 5HT2A receptor
5-hydroxytryptamine receptor 2A, sequence (P28223 whole entry): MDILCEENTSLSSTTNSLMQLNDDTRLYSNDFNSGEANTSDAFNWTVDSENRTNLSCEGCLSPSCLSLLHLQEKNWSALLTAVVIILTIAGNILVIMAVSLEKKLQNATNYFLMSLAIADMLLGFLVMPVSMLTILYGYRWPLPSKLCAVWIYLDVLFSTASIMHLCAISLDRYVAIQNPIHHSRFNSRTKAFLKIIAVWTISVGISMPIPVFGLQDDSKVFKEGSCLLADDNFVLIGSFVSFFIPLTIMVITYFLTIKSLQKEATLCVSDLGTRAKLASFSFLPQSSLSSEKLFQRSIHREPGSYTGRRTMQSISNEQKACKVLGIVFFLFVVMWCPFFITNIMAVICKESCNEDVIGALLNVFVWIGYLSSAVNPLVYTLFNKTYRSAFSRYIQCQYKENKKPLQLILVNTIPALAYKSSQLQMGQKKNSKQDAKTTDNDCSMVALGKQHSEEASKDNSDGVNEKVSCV

[26] = molecular target: Cytochrome P450 2D6 (Homo sapiens, UniProt P10635); experiment: Inhibition of CYP2D6 in human liver microsomes using dextromethorphan as substrate after 10 mins by LC-MS/MS analysis in presence of NADPH
Cytochrome P450 2D6, sequence (P10635 whole entry): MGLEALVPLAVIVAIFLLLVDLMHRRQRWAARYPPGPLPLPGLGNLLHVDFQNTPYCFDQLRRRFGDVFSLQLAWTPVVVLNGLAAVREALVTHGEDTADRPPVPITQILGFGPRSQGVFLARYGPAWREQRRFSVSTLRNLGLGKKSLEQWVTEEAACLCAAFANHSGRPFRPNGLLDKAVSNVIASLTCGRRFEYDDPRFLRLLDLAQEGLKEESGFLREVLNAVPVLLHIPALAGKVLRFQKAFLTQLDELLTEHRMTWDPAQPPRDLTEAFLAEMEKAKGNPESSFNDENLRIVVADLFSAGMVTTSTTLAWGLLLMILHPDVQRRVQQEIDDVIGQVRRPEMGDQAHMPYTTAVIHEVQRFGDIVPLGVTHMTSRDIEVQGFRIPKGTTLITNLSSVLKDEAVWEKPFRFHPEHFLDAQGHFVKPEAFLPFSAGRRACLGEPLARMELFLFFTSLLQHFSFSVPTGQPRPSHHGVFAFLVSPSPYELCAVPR

Imax [1]: 100%
half-life [2]: 1.7 h
AUC(0-t) at 24 h [3]: 1310 ng·h/mL
AUC(0-t) at 24 h [4]: 1400 ng·h/mL
EC50 [5]: > 10 µM
Kp at 1 h [6]: 0.9
Tmax [7]: 1 h
Vd [8]: 2.1 L/kg
clearance [9]: 64 mL/min/kg
Cmax [10]: 549 ng/mL
metabolised at 0.5 h, 2.5 µM [11]: 76%
Ki [13]: 2.24 µM
bioavailability [15]: 92%
IC50 [16]: > 10 µM
AUC(0-t) at 24 h [18]: 389 ng·h/mL
Ki [19]: 1.81 µM
Vd [20]: 10 L/kg
Ki [21]: > 10 µM
IC50 [22]: 10 µM
metabolised at 0.5 h, 2.5 µM [23]: 72%
Ki [24]: 1.96 µM
Ki [25]: 2.37 µM
IC50 [26]: > 45 µM
SMILES: COc1ccc(S(=O)(=O)n2cc(C)c3cc(Cl)cnc32)cc1NC1CCN(C)CC1
Activity [12]: Active
Activity [14]: Active
Activity [17]: Active
